Columns and labels:
Format in all cases: in vivo
harmful plants [1] = assay: Method A: post-emergence herbicidal action, summary in text; settings: applied post-emergence, table A (320 g/ha)
Protocol: (§1) Method A: Post-Emergence Herbicidal Action and Crop Plant Compatibility
(§2) Seeds of monocotyledonous and dicotyledonous weeds and crop plants are placed in sandy loam in plastic or organic planting pots, covered with soil and cultivated in a greenhouse under controlled growth conditions. 2 to 3 weeks after sowing, the test plants are treated at the one-leaf stage. The compounds of the invention, formulated in the form of wettable powders (WP) or as emulsion concentrates (EC), are then sprayed onto the green parts of the plants as aqueous suspension or emulsion with addition of 0.5% additive at a water application rate of […] (converted). After the test plants have been kept in the greenhouse under optimum growth conditions for about 3 weeks, the activity of the preparations is rated visually in comparison to untreated controls. For example, 100% activity=the plants have died, 0% activity=like control plants.

Lolium rigidum [2] = assay: Method B: pre-emergence herbicidal action; settings: scored visually after about 3 weeks
Source text: (§3) Method B: Pre-Emergence Herbicidal Action and Crop Plant Compatibility
(§4) Seeds of monocotyledonous and dicotyledonous weed plants and crop plants are placed in plastic or organic planting pots and covered with soil. The compounds of the invention, formulated in the form of wettable powders (WP) or as emulsion concentrates (EC), are then applied onto the surface of the covering soil as aqueous suspension or emulsion with addition of 0.5% additive at a water application rate of 6001/ha (converted). After the treatment, the pots are placed in a greenhouse and kept under good growth conditions for the trial plants. After about 3 weeks, the effect of the preparations is scored visually in comparison with untreated controls as percentages. For example, 100% activity=the plants have died, 0% activity=like control plants.

Digitaria sanguinalis = assay: Method B: pre-emergence herbicidal action; settings: scored visually after about 3 weeks
Source text: as §3, §4

Polygonum convolvulus [3] = assay: Method B: pre-emergence herbicidal action; settings: scored visually after about 3 weeks
Source text: as §3, §4

Stellaria media [4] = assay: Method B: pre-emergence herbicidal action; settings: scored visually after about 3 weeks
Source text: as §3, §4

Echinochloa crus-galli [5] = assay: Method B: pre-emergence herbicidal action; settings: scored visually after about 3 weeks
Source text: as §3, §4

Avena fatua [6] = assay: Method B: pre-emergence herbicidal action; settings: scored visually after about 3 weeks
Source text: as §3, §4

Alopecurus myosuroides [7] = assay: Method B: pre-emergence herbicidal action; settings: scored visually after about 3 weeks
Source text: as §3, §4

Abufilon theophrast [8] = assay: Method B: pre-emergence herbicidal action; settings: scored visually after about 3 weeks
Source text: as §3, §4

Hordeum murinum [9] = assay: Method B: pre-emergence herbicidal action; settings: scored visually after about 3 weeks
Source text: as §3, §4

Lolium rigidum [10] = assay: Method A: post-emergence herbicidal action; settings: rated visually after about 3 weeks
Protocol: as §1, §2

Polygonum convolvulus [11] = assay: Method A: post-emergence herbicidal action; settings: rated visually after about 3 weeks
Protocol: as §1, §2

Stellaria media [12] = assay: Method A: post-emergence herbicidal action; settings: rated visually after about 3 weeks
Protocol: as §1, §2

Echinochloa crus-galli [13] = assay: Method A: post-emergence herbicidal action; settings: rated visually after about 3 weeks
Protocol: as §1, §2

Avena fatua [14] = assay: Method A: post-emergence herbicidal action; settings: rated visually after about 3 weeks
Protocol: as §1, §2

Alopecurus myosuroides [15] = assay: Method A: post-emergence herbicidal action; settings: rated visually after about 3 weeks
Protocol: as §1, §2

Hordeum murinum [16] = assay: Method A: post-emergence herbicidal action; settings: rated visually after about 3 weeks
Protocol: as §1, §2

harmful plants [17] = assay: Method B: pre-emergence herbicidal action, summary in text; settings: applied pre-emergence, table B (320 g/ha)
Source text: as §3, §4

Stellaria media [18] = assay: Method E: herbicidal early post-emergence action; settings: cotyledon stage, 96-well microtiter plates, scored visually after 9 to 12 days
Protocol: (§5) Method E: Herbicidal Early Post-Emergence Action Seeds of monocotyledonous or dicotyledonous weed plants are placed in 96-well microtiter plates in quartz sand and grown in a climatized chamber under controlled growth conditions. 5 to 7 days after sowing, the test plants are treated at the cotyledon stage. The compounds of the invention, formulated in the form of emulsion concentrates (EC), are applied with a water application rate of the equivalent of 2200 liters per hectare. After the test plants had been left to stand in the climatized chamber for 9 to 12 days under optimum growth conditions, the effect of the preparations is scored visually in comparison to untreated controls. For example, 100% activity=the plants have died, 0% activity=like control plants.

Agrostis tenuis = assay: Method E: herbicidal early post-emergence action; settings: cotyledon stage, 96-well microtiter plates, scored visually after 9 to 12 days
Protocol: as §5

Lolium perenne = assay: Method E: herbicidal early post-emergence action; settings: cotyledon stage, 96-well microtiter plates, scored visually after 9 to 12 days
Protocol: as §5

Matricaria chamonilla = assay: Method E: herbicidal early post-emergence action; settings: cotyledon stage, 96-well microtiter plates, scored visually after 9 to 12 days
Protocol: as §5

Poa annua [19] = assay: Method E: herbicidal early post-emergence action; settings: cotyledon stage, 96-well microtiter plates, scored visually after 9 to 12 days
Protocol: as §5

harmful plants [20] = assay: Method E: herbicidal early post-emergence action, summary in text; settings: applied in early post-emergence, table E (1900 g/ha)
Protocol: as §5

harmful plants [21] = assay: Method C: herbicidal post-emergence action, summary in text; settings: applied post-emergence, table C (1280 g/ha)
Protocol: (§6) Method C: Herbicidal Post-Emergence Action Seeds of mono- and dicotyledonous weed plants are placed in plastic pots in sandy loam soil (doubly sown with one species each of mono- or dicotyledonous weed plants per pot), covered with soil and cultivated in a greenhouse under controlled growth conditions. 2 to 3 weeks after sowing, the test plants are treated at the one-leaf stage. The compounds of the invention, formulated in the form of wettable powders (WP) or as emulsion concentrates (EC), are applied to the green parts of the plants as aqueous suspension or emulsion with addition of 0.5% additive at a water application rate equivalent to 600 liters per hectare. After the test plants have been kept in the greenhouse under optimum growth conditions for about 3 weeks, the activity of the preparations is rated visually in comparison to untreated controls. For example, 100% activity=the plants have died, 0% activity=like control plants.

harmful plants [22] = assay: Method D: herbicidal pre-emergence action, summary in text; settings: applied pre-emergence, table D (1280 g/ha)
Source text: as §4, with “Method D: Herbicidal Pre-Emergence Action Seeds” for “Seeds”, “mono-” for “monocotyledonous”, “weed” for “weed plants and crop”, “plastic pots in sandy loam soil (doubly sown with one species each of mono-” for “plastic”, “dicotyledonous weed plants per pot)” for “organic planting pots”, “600 liters per hectare” for “6001/ha”

Lolium rigidum [23] = assay: Method D: herbicidal pre-emergence action; settings: scored visually after about 3 weeks
Source text: as §4, with “Method D: Herbicidal Pre-Emergence Action Seeds” for “Seeds”, “mono-” for “monocotyledonous”, “weed” for “weed plants and crop”, “plastic pots in sandy loam soil (doubly sown with one species each of mono-” for “plastic”, “dicotyledonous weed plants per pot)” for “organic planting pots”, “600 liters per hectare” for “6001/ha”

Matricaria inodora = assay: Method D: herbicidal pre-emergence action; settings: scored visually after about 3 weeks
Source text: as §4, with “Method D: Herbicidal Pre-Emergence Action Seeds” for “Seeds”, “mono-” for “monocotyledonous”, “weed” for “weed plants and crop”, “plastic pots in sandy loam soil (doubly sown with one species each of mono-” for “plastic”, “dicotyledonous weed plants per pot)” for “organic planting pots”, “600 liters per hectare” for “6001/ha”

Stellaria media [24] = assay: Method D: herbicidal pre-emergence action; settings: scored visually after about 3 weeks
Source text: as §4, with “Method D: Herbicidal Pre-Emergence Action Seeds” for “Seeds”, “mono-” for “monocotyledonous”, “weed” for “weed plants and crop”, “plastic pots in sandy loam soil (doubly sown with one species each of mono-” for “plastic”, “dicotyledonous weed plants per pot)” for “organic planting pots”, “600 liters per hectare” for “6001/ha”

Echinochloa crus-galli [25] = assay: Method D: herbicidal pre-emergence action; settings: scored visually after about 3 weeks
Source text: as §4, with “Method D: Herbicidal Pre-Emergence Action Seeds” for “Seeds”, “mono-” for “monocotyledonous”, “weed” for “weed plants and crop”, “plastic pots in sandy loam soil (doubly sown with one species each of mono-” for “plastic”, “dicotyledonous weed plants per pot)” for “organic planting pots”, “600 liters per hectare” for “6001/ha”

Setaria viridis = assay: Method D: herbicidal pre-emergence action; settings: scored visually after about 3 weeks
Source text: as §4, with “Method D: Herbicidal Pre-Emergence Action Seeds” for “Seeds”, “mono-” for “monocotyledonous”, “weed” for “weed plants and crop”, “plastic pots in sandy loam soil (doubly sown with one species each of mono-” for “plastic”, “dicotyledonous weed plants per pot)” for “organic planting pots”, “600 liters per hectare” for “6001/ha”

Abufilon theophrast [26] = assay: Method D: herbicidal pre-emergence action; settings: scored visually after about 3 weeks
Source text: as §4, with “Method D: Herbicidal Pre-Emergence Action Seeds” for “Seeds”, “mono-” for “monocotyledonous”, “weed” for “weed plants and crop”, “plastic pots in sandy loam soil (doubly sown with one species each of mono-” for “plastic”, “dicotyledonous weed plants per pot)” for “organic planting pots”, “600 liters per hectare” for “6001/ha”

Poa annua [27] = assay: Method D: herbicidal pre-emergence action; settings: scored visually after about 3 weeks
Source text: as §4, with “Method D: Herbicidal Pre-Emergence Action Seeds” for “Seeds”, “mono-” for “monocotyledonous”, “weed” for “weed plants and crop”, “plastic pots in sandy loam soil (doubly sown with one species each of mono-” for “plastic”, “dicotyledonous weed plants per pot)” for “organic planting pots”, “600 liters per hectare” for “6001/ha”

Lolium rigidum [28] = assay: Method C: herbicidal post-emergence action; settings: rated visually after about 3 weeks
Protocol: as §6

Stellaria media [29] = assay: Method C: herbicidal post-emergence action; settings: rated visually after about 3 weeks
Protocol: as §6

Echinochloa crus-galli [30] = assay: Method C: herbicidal post-emergence action; settings: rated visually after about 3 weeks
Protocol: as §6

Poa annua [31] = assay: Method C: herbicidal post-emergence action; settings: rated visually after about 3 weeks
Protocol: as §6

SMILES | herbicidal efficacy against harmful plants (harmful plants [1]) | Pre-emergence action at 320 g/ha LOLRI (Lolium rigidum [2]) [%] | Pre-emergence action at 320 g/ha DIGSA (Digitaria sanguinalis) [%] | Pre-emergence action at 320 g/ha POLCO (Polygonum convolvulus [3]) [%] | Pre-emergence action at 320 g/ha STEME (Stellaria media [4]) [%] | Pre-emergence action at 320 g/ha ECHCG (Echinochloa crus-galli [5]) [%] | Pre-emergence action at 320 g/ha AVEFA (Avena fatua [6]) [%] | Pre-emergence action at 320 g/ha ALOMY (Alopecurus myosuroides [7]) [%] | Pre-emergence action at 320 g/ha ABUTH (Abufilon theophrast [8]) [%] | Pre-emergence action at 320 g/ha HORMU (Hordeum murinum [9]) [%] | Post-emergence action at 320 g/ha LOLRI (Lolium rigidum [10]) [%] | Post-emergence action at 320 g/ha POLCO (Polygonum convolvulus [11]) [%] | Post-emergence action at 320 g/ha STEME (Stellaria media [12]) [%] | Post-emergence action at 320 g/ha ECHCG (Echinochloa crus-galli [13]) [%] | Post-emergence action at 320 g/ha AVEFA (Avena fatua [14]) [%] | Early post-emergence action at 1900 g/ha STEME (Stellaria media [18]) [%] | Early post-emergence action at 1900 g/ha AGSTE (Agrostis tenuis) [%] | Early post-emergence action at 1900 g/ha LOLPE (Lolium perenne) [%] | Early post-emergence action at 1900 g/ha MATCH (Matricaria chamonilla) [%] | Early post-emergence action at 1900 g/ha POAAN (Poa annua [19]) [%] | other results
CN(C)C(=O)C(=O)Cc1nc(C2CC2)ncc1-c1ccccc1Cl [Example I-139, 3-[5-(2-chlorophenyl)-2-cyclopropylpyrimidin-4-yl]-N,N-dimethyl-2-oxopropanamide] | very good herbicidal efficacy | 100 | 100 | 90 | 100 | 100 | 80 | 100 | 80 | 90 | 100 | 90 | 80 | 90 | 90 | 100 | 100 | 80 | 100 | 100 | Post-emergence action at 320 g/ha ALOMY (Alopecurus myosuroides [15]): 100%; Post-emergence action at 320 g/ha HORMU (Hordeum murinum [16]): 90%; herbicidal efficacy against harmful plants (harmful plants [17]): very good herbicidal efficacy
O=C(Cc1nc(C2CC2)ncc1-c1c(F)cccc1Cl)C(=O)N1CCCCC1 [Example I-146, 3-[5-(2-chloro-6-fluorophenyl)-2-cyclopropylpyrimidin-4-yl]-1-(piperidin-1-yl)propane-1,2-dione] | – | – | – | – | – | – | – | – | – | – | – | – | – | – | – | 80 | 80 | 80 | 80 | 80 | –
CCOC(=O)C(=O)Cc1nc(C2CC2)ncc1-c1ccccc1Cl [II-099, ethyl 3-[5-(2-chlorophenyl)-2-cyclopropylpyrimidin-4-yl]-2-oxopropanoate] | very good herbicidal efficacy | 100 | 90 | 90 | 100 | 100 | 90 | 100 | 80 | 90 | 100 | 90 | 100 | 90 | 90 | – | 100 | – | 100 | 100 | herbicidal efficacy against harmful plants (harmful plants [20]): very good herbicidal efficacy; Post-emergence action at 320 g/ha ALOMY (Alopecurus myosuroides [15]): 90%; Post-emergence action at 320 g/ha HORMU (Hordeum murinum [16]): 80%; herbicidal efficacy against harmful plants (harmful plants [17]): very good herbicidal efficacy
CN(NC(=O)C(=O)Cc1nc(C2CC2)ncc1-c1ccccc1Cl)C(=O)OC(C)(C)C [IV-137, tert-butyl 2-{3-[5-(2-chlorophenyl)-2-cyclopropylpyrimidin-4-yl]-2-oxopropanoyl}-1-methylhydrazinecarboxylate] | – | – | – | – | – | – | – | – | – | – | – | – | – | – | – | 100 | 100 | 80 | 80 | 80 | herbicidal efficacy against harmful plants (harmful plants [20]): very good herbicidal efficacy; herbicidal efficacy against harmful plants (harmful plants [21]): very good herbicidal efficacy; herbicidal efficacy against harmful plants (harmful plants [22]): very good herbicidal efficacy; Pre-emergence action at 1280 g/ha LOLRI (Lolium rigidum [23]): 90%; Pre-emergence action at 1280 g/ha MATIN (Matricaria inodora): 90%; Pre-emergence action at 1280 g/ha STEME (Stellaria media [24]): 100%; Pre-emergence action at 1280 g/ha ECHCG (Echinochloa crus-galli [25]): 90%; Pre-emergence action at 1280 g/ha SETVI (Setaria viridis): 90%; Pre-emergence action at 1280 g/ha ABUTH (Abufilon theophrast [26]): 90%; Pre-emergence action at 1280 g/ha POAAN (Poa annua [27]): 100%; Post-emergence action at 1280 g/ha LOLRI (Lolium rigidum [28]): 100%; Post-emergence action at 1280 g/ha STEME (Stellaria media [29]): 100%; Post-emergence action at 1280 g/ha ECHCG (Echinochloa crus-galli [30]): 100%; Post-emergence action at 1280 g/ha POAAN (Poa annua [31]): 100%
